Each structure is given as a SMILES string.

A short description of the assay: Inhibition of Flt3 in human MV411 cells assessed as assessed as proliferation after 72 hrs incubation by spectrophotometry.

In the case of `c1cn2cc(-c3ccc4cn[nH]c4c3)nc(Nc3ccc(N4CCOCC4)cc3)c2n1`, the EC50 is 0.327 µM.

The EC50 is the concentration at which the effect is half-maximal.

For the origin of these results see BindingDB's records for doi:10.1021/jm500228a (Gilead Sciences, 2014).
